The values below come from EPA's ToxValDB 9.5.

The structures appear in SMILES notation. Values joined by “and” are separate entries in the source; they are usually repeats but may differ in a detail not shown here. Equal values may be shown once.

Broadly, the LD50 is the dose expected to kill half of the subjects tested. One may read the LOAEL as the lowest dose or exposure tested at which an adverse effect was seen. The NOAEL is the highest dose or exposure tested at which no adverse effect was seen.

Data set [1] has as its system Rattus norvegicus. Particulars: acute.
Data set [2] relates to Oryctolagus sp. The data set can be described thus: LD0; higher = less toxic. Particulars: acute; dermal; New Zealand.
In data set [3] the test system is Mus musculus. Conditions: acute; inhalation.
Data set [4] relates to Rattus norvegicus. The data set can be described thus: LD0; higher = less toxic. Conditions: acute; oral; gavage.
The subject of data set [5] is Gallus sp. Conditions: repeat dose other; oral.
Data set [6] deals with Canidae. Conditions: acute; duration: 10 minutes; inhalation; unknown; Dog Other; Whole Body: Seizures.
Data set [7] concerns Rattus norvegicus. Conditions: inhalation.
Data set [8] has as its system Rattus norvegicus. Particulars: subchronic, oral, gavage, Fischer 344, Deaths + Body Weight Changes: decrease + Hematology: Hct increase, RBC increase, WBC increase, Hgb increase, Ret increase, Nucleated ….
For data set [9], the system named is Rattus norvegicus. Particulars: M/F.
Data set [10] concerns Homo sapiens. Conditions: clinical; duration: 60 minutes; inhalation; M/F; respiratory.
The test system of data set [11] is Rattus norvegicus. Conditions: subchronic; duration: 13 weeks; inhalation; M/F; respiratory.
The test system of data set [12] is Rattus norvegicus. Kind of data set: FEL; higher = less toxic. Particulars: chronic; oral; gavage; M/F; reduced survival.
Setting [13] is: reproduction developmental, duration: 9 days, F, Crl:CD(SD), generation: P0, P0: Skin: Stained Fur + P0: Whole Body: Body Weight Change + P0: Whole Body: Convulsions + P0: Whole Body: Feed Consumption, Absolute.
The mark [14] stands for this setting: reproduction developmental, duration: 9 days, M/F, Crl:CD(SD), generation: F1, F1: Whole Body: Pup Weight Relative to Litter.
The mark [15] stands for this setting: reproduction developmental, duration: 107 days, M, Crj:CD, generation: P0, P0: Whole Body: Clonic Seizures + P0: Whole Body: Mortality.
Setting [16] is: reproduction developmental, duration: 121 days, F, Crl:CD(SD), generation: P0, P0: Liver: Liver Weight, Absolute + P0: Liver: Liver Weight, Relative + P0: Pituitary: Pituitary Gland Weight, Absolute + P0: Pituitary: ….
Where [17] appears, read: subchronic, duration: 90 days, F, Crl:CD(SD) BR, Blood: Albumin (A) + Renal: Urine Osmolality + Renal: Urine Volume (UVOL) + Whole Body: Motor Activity.
Setting [18] is: subchronic, duration: 90 days, F, Crl:CD(SD) BR, Central Nervous System: Abnormal Behavior.
Where [19] appears, read: subchronic, duration: 90 days, M, Crl:CD(SD) BR, Blood: Albumin (A) + Whole Body: Motor Activity.
The mark [20] stands for this setting: subchronic, duration: 90 days, M, Crl:CD(SD) BR, Central Nervous System: Abnormal Behavior.

With `CC12C=CC(C1)C1C(=O)OC(=O)C12` (stereo not given) [1,2,3,6-Tetrahydromethyl-3,6-methanophthalic anhydride], the LD50 in data set [1] (dermal) is 4920 mg/kg and ≥ 3670 mg/kg and ≤ 6590 mg/kg; in data set [1] (oral) it was 914 mg/kg; in data set [1] (oral, gavage, Sprague-Dawley) it was 958 mg/kg and ≥ 856 mg/kg and ≤ 1080 mg/kg. This molecule also displayed an LD0 in [2] of more than 2000 mg/kg.

In data set [3], `FC(F)(Cl)C(F)(F)Cl` [1,2-Dichloro-1,1,2,2-tetrafluoroethane] returned an LC50 of 4.89e+06 mg/m3. Also, the LD0 in data set [4] is more than 2250 mg/kg.

`Clc1cc2oc3cc(Cl)c(Cl)cc3c2cc1Cl` [2,3,7,8-Tetrachlorodibenzofuran]: in data set [5], the LOAEL turned out to be 1e-05 mg/kg-day and the NOAEL is 1e-06 mg/kg-day.

Turning to `FC(C(F)C(F)(F)C(F)(F)F)C(F)(F)F` (stereo not given) [2H,3H-Decafluoropentane], the LOAEL in data set [6] was found to be 103000 mg/m3; in data set [7] (setting [13]) it was 20000 mg/m3; in [7] (setting [14]) it was 35800 mg/m3; in data set [7] (setting [15]), 36100 mg/m3; in [7] (setting [16]), 36100 mg/m3; in [7] (setting [17]), 36100 mg/m3. The results for the LOAEL in [7] (setting [18]), in data set [7] (setting [19]) and in [7] (setting [20]) were 20600 mg/m3, 36100 mg/m3 and 20600 mg/m3, respectively. Also, the no observed adverse effect level (NOAEL) in data set [6] was 51500 mg/m3; in data set [7] (reproduction developmental, duration: 9 days, F, Crl:CD(SD), generation: P0, P0: Ovary: Corpora Lutea + P0: Uterus: Implantation + P0: Uterus: Uterine Weight, Gravid), 35800 mg/m3; in data set [7] (setting [13]), 5170 mg/m3; in [7] (reproduction developmental, duration: 9 days, M/F, Crl:CD(SD), generation: F1, F1: Multi-Organ: Soft Tissue Examinations + F1: Skeleton: Skeletal Examinations + F1: Uterus: Resorptions, Early + F1: Uterus: Resorptions, …), 35800 mg/m3; in data set [7] (setting [14]) it was 20000 mg/m3; in data set [7] (reproduction developmental, duration: 107 days, M, Crj:CD, generation: P0, P0: Liver: Liver Weight, Absolute + P0: Liver: Liver Weight, Relative + P0: Pituitary: Pituitary Gland Weight, Absolute + P0: Pituitary: …), 36100 mg/m3. Further, the NOAEL in data set [7] (setting [15]) was found to be 20600 mg/m3; in data set [7] (setting [16]) it was 20600 mg/m3; in [7] (reproduction developmental, duration: 121 days, F, Crl:CD(SD), generation: P0, P0: Uterus: Implantation + P0: Whole Body: Fertility Index + P0: Whole Body: Maternal Body Weight + P0: Whole Body: Maternal Body Weight …), 36100 mg/m3; in [7] (reproduction developmental, duration: 121 days, M/F, Crl:CD(SD), generation: F1, F1: Whole Body: Necropsy Appeared Normal + F1: Whole Body: Pup Weight Relative to Litter + F1: Whole Body: Survival + F1: Whole Body: …) it was 36100 mg/m3; in [7] (subchronic, duration: 90 days, F, Crl:CD(SD) BR, Adrenal: Adrenal Gland Histopathology + Adrenal: Adrenal Gland Weight, Absolute + Adrenal: Adrenal Gland Weight, Relative + Brain: Brain …) it was 36100 mg/m3; in [7] (setting [17]), 20600 mg/m3. Besides, the NOAEL in data set [7] (setting [18]) amounted to 5150 mg/m3; in [7] (subchronic, duration: 90 days, M, Crl:CD(SD) BR, Adrenal: Adrenal Gland Histopathology + Adrenal: Adrenal Gland Weight, Absolute + Adrenal: Adrenal Gland Weight, Relative + Brain: Brain …) it was 36100 mg/m3; in data set [7] (setting [19]) it was 20600 mg/m3; in data set [7] (setting [20]) it was 5150 mg/m3.

Take `C=CC=O` [Acrolein]: the NOEL in data set [8] (F) was less than 0.75 mg/kg-day; in data set [8] (M), 1.25 mg/kg-day. In data set [9] (chronic, oral, gavage, reduced survival), this molecule displayed an NOAEL of 0.05 mg/kg-day. For the same molecule, the LOAEL in data set [9] (subchronic, inhalation, nasal lesions) is 0.9 mg/m3; in [10] it was 0.688 mg/m3; in data set [11], 0.917 mg/m3. In data set [12], this molecule displayed an FEL of 0.5 mg/kg-day.
